From patent US20180371408A1, “CELL CULTURES AND METHODS OF USE” (priority 2017, published 2018)
pIC50: −log10 of the molar value. Where “and” joins values, the source holds several entries; their conditions need not be identical. Identical values can stand only once. Like-named read-outs stand apart in the source and are kept apart here.

Tests used:
reproductive system [1] = settings: cited from earlier work
[2] = test system: testicular co-culture: spermatogonial cells (C18-4), Sertoli cells (TM4), Leydig cells (TM3); settings: for concentration with statistically significant decrease in viability (p<0.05): 48 h exposure
[3] = test system: Spermatogonial cells (C18-4); test: cells; format: cell-based, mouse
Leydig cells (TM3) = test: cells; format: cell-based, mouse
[4] = test system: testicular co-culture: spermatogonial cells (C18-4), Sertoli cells (TM4), Leydig cells (TM3); test: cells; settings: Mus musculus
Sertoli cells (TM4) = test: cells; format: cell-based, mouse
reproductive system [5] = settings: cited from earlier work; remark: listed apart in the source
[6] = test system: testicular co-culture (spermatogonial, Sertoli, Leydig cells); test: Multi-parametric high-content assay of the co-culture treated with cadmium; format: cell-based, mouse; settings: 0.05, 0.25, 0.50 and 1.0 μM for 48 h
From the text: All cultures were viewed with an Olympus inverted microscope equipped with phase-contrast optics (Olympus, Tokyo, Japan) at intervals during the culture to assess their general appearance. Images were captured and digitized with a Nikon Camera. To further examine the morphology of the cultured cells, a multi-parametric high-content analysis (HCA) was applied to quantify the F-actin cytoskeleton, nuclear shape, and cell proliferation. The spermatogonial cells were identified using typical markers of mouse germ cell nuclear antigen (GCNA1) (Developmental Studies Hybridoma Bank, http://dshb.biology.uiowa.edu, Iowa, IA)(Enders and May, 1994). Leydig cells were identified using steroidogenic acute regulatory protein (StAR)(Clark et al., 1994) (kindly gifted by Dr. Douglas M. Stocco, Texas Tech University). Sertoli cells were stained with SOX9 (Developmental Studies Hybridoma Bank, Iowa, IA). After culture for 48 and 72 h, cells were washed with phosphate buffered saline (PBS), fixed with 4% formaldehyde for 20 min at room temperature, and then washed with PBS three times. […] The multichannel images were automatically captured using an Arrayscan VTI HCS reader with a Studio 2.0 Target Activation BioApplication module (Thermo Scientific, MA). […]
Single-cell based High-content Analysis (HCA) provided multi-parameter phenotypic profiling characterization, including number, nuclear area, shape, and intensity, as previously reported (Liang et al., 2017). […] With 36 fields of each well, at least 4000 cells were analyzed per well, and single-cell based data for each channel were exported for further statistical analysis. […]
For quantitative analysis of three-dimensional F-actin cytoskeleton, we applied the Cytoskeletal Re-arrangement Assay in the Morphology Explorer Bioapplication (ThermoScientific, MA) to determine the number, dimensions and alignment—as well as the texture—of actin fibers based on the manufacturer's guideline (ThermoFisher, 2010). […]

[7] = based on ToxCast database and literature search
[8] = co-culture, 48 h treatment, FIG. 6
[9] = Spermatogonial Cell, 24 h, highest concentration tested assigned as IC50 where viability did not decrease 50%, read-out: IC50
[10] = Spermatogonial Cell, 48 h, highest concentration tested assigned as IC50 where viability did not decrease 50%, read-out: IC50
[11] = Mus musculus, Leydig, 24 h, read-out: IC50
[12] = Mus musculus, Leydig, 48 h, read-out: IC50
[13] = Mus musculus, 24 h, read-out: IC50
[14] = Mus musculus, 48 h, read-out: IC50
[15] = Leydig Cell, 48 h, highest concentration tested assigned as IC50 where viability did not decrease 50%, read-out: IC50
[16] = Co-culture, 24 h, highest concentration tested assigned as IC50 where viability did not decrease 50%
[17] = Co-culture, 48 h, highest concentration tested assigned as IC50 where viability did not decrease 50%
[18] = Leydig Cell, 24 h, highest concentration tested assigned as IC50 where viability did not decrease 50%, read-out: IC50
[19] = Sertoli Cell, 24 h, highest concentration tested assigned as IC50 where viability did not decrease 50%, read-out: IC50
[20] = Sertoli Cell, 48 h, highest concentration tested assigned as IC50 where viability did not decrease 50%, read-out: IC50

Compound | In vivo Reproductive Toxicity (reproductive system [1]; [7]) | effect on cell viability (NR uptake), in words [2, 8] | pIC50 ([4]; 24 h) | pIC50 ([4]; 48 h) | pIC50 (Leydig cells (TM3); [11]) | pIC50 (Leydig cells (TM3); [12]) | pIC50 [3, 13] | pIC50 [3, 14] | pIC50 (Sertoli cells (TM4); [13]) | pIC50 (Sertoli cells (TM4); [14]) | other results
O=C(c1ccc2c(c1)C(=O)OC2=O)c1ccc2c(c1)C(=O)OC2=O [BEN, Benzophenone-3,3′,4,4′-tetracarboxylic dianhydride] | + | significant dose-dependent decrease of cell viability |  |  |  |  |  |  |  |  | 
O=C1NS(=O)(=O)c2ccccc21 [SAC] |  | did not cause a significant decrease in cell viability |  |  |  |  |  |  |  |  | 
TCEP |  | statistically significant decreases in cell viability |  |  |  |  |  |  |  |  | pIC50 [3, 9]: 2.29; pIC50 [3, 10]: 2.43
O=P1(N(CCCl)CCCl)NCCCO1 (stereo not drawn) [CYC, Cyclophosphamide] |  |  | < 2.30 | < 2.30 |  |  |  |  |  |  | In vivo Reproductive Toxicity (reproductive system [1]; in vivo): +; call in in vivo models (reproductive system [1]; in vivo): positive; pIC50 (Leydig cells (TM3); Mus musculus, Leydig, 24 h): < 2.30; pIC50 (Leydig cells (TM3); Mus musculus, Leydig, 48 h): < 2.30; pIC50 ([3]; Mus musculus, 24 h): < 2.30; pIC50 ([3]; Mus musculus, 48 h): < 2.30; pIC50 (Sertoli cells (TM4); Mus musculus, 24 h): < 2.30; pIC50 (Sertoli cells (TM4); Mus musculus, 48 h): < 2.30; effect on cell viability (NR uptake), in words [2]: did not cause a significant decrease in cell viability; in vitro call as reproductive toxicant [2]: negative
CCCC(CCC)C(=O)[O-].[Na+] [VPA, Valproic acid sodium salt] | + | statistically significant decreases in cell viability | < 1.70 | 2.05 | < 1.70 | 2.02 | < 1.70 | 2.22 | < 1.70 | 2.12 | 
Sodium arsenite [As] |  |  |  |  |  |  |  |  |  |  | In vivo Reproductive Toxicity (reproductive system [1]; in vivo): +; pIC50 (Leydig cells (TM3); read-out: IC50): 4.69 and 4.79; reproductive LOAEL (reproductive system [5]; rat, in vivo): 8 mg/kg/day; pIC50 ([3]; read-out: IC50): 5.16 and 5.17; pIC50 (Sertoli cells (TM4); read-out: IC50): 4.92 and 5.16; pIC50 [2]: 4.82 and 5.00; effect on cell viability (NR uptake), in words [2]: most toxic
C[C@H]1CCCC(=O)CCC/C=C/c2cc(O)cc(O)c2C(=O)O1 [ZEA, Zearalenone] | + |  | 5.14 | 5.39 | 5.47 | 5.60 | 5.42 | 5.70 | 5.51 | 5.60 | pIC50 ([4]; read-out: IC50 values (mostly)): ≥ 4.00; reproductive LOAEL (reproductive system [5]; in rats): 1 mg/kg/day
CCOP(=S)(OCC)Oc1nc(Cl)c(Cl)cc1Cl [CHL, chlorpyrifos] | + | significant dose-dependent decrease of cell viability | 4.04 | 4.05 | 3.85 | 3.92 | 3.93 | 4.02 | 3.67 | 3.92 | pIC50 ([4]; read-out: IC50 values (mostly)): ≥ 4.00
CCCCCOC(=O)c1ccccc1C(=O)OCCCCC [DPP] |  | dose-dependent decrease of cell viability |  |  |  |  |  |  |  |  | pIC50 (Leydig cells (TM3); [15]): 3.61; pIC50 [3, 10]: 3.43; pIC50 [2, 16]: 3.26; pIC50 [2, 17]: 3.45
Oc1cc(Cl)ccc1Oc1ccc(Cl)cc1Cl [TCS] |  | significant dose-dependent decrease of cell viability |  |  |  |  |  |  |  |  | pIC50 (Leydig cells (TM3); [18]): 3.87; pIC50 (Leydig cells (TM3); [15]): 4.10; pIC50 [3, 9]: 4.20; pIC50 [3, 10]: 4.24; pIC50 (Sertoli cells (TM4); [19]): 4.09; pIC50 (Sertoli cells (TM4); [20]): 4.14; pIC50 [2, 16]: 3.92; pIC50 [2, 17]: 4.12
CC/C(=C(/CC)c1ccc(O)cc1)c1ccc(O)cc1 [DES, Diethylstilbestrol] | + |  |  |  |  |  |  |  |  |  | reproductive LOAEL (reproductive system [5]; in rats): 10 mg/kg/day
OB(O)O [BA, Boric acid] |  |  | < 2.30 | < 2.30 |  |  |  |  |  |  | In vivo Reproductive Toxicity (reproductive system [1]; in vivo): +; call in in vivo models (reproductive system [1]; in vivo): positive; pIC50 (Leydig cells (TM3); Mus musculus, Leydig, 24 h): < 2.30; pIC50 (Leydig cells (TM3); Mus musculus, Leydig, 48 h): < 2.30; pIC50 ([3]; Mus musculus, 24 h): < 2.30; pIC50 ([3]; Mus musculus, 48 h): 2.45; pIC50 (Sertoli cells (TM4); Mus musculus, 24 h): < 2.30; pIC50 (Sertoli cells (TM4); Mus musculus, 48 h): < 2.30; effect on cell viability (NR uptake), in words [2]: statistically significant decreases in cell viability; in vitro call as reproductive toxicant [2]: negative
COC(=O)c1ccccc1C(=O)OC [DMP] |  | no or slight decrease of cell viability |  |  |  |  |  |  |  |  | developmental toxicity of phthalates (literature) (reproductive system [1]; in vivo): developmental non-toxic
NC(=O)NO [HU] |  | statistically significant decreases in cell viability |  |  |  |  |  |  |  |  | pIC50 (Leydig cells (TM3); [18]): 3.22; pIC50 (Leydig cells (TM3); [15]): 3.70; pIC50 [3, 10]: 3.52; pIC50 (Sertoli cells (TM4); [19]): 3.40; pIC50 (Sertoli cells (TM4); [20]): 3.82; pIC50 [2, 17]: 3.70
CCCCOC(=O)c1ccccc1C(=O)OCc1ccccc1 [BBP, Benzyl butyl phthalate] | + | dose-dependent decrease of cell viability | 3.05 | 3.27 | ≤ 3.40 | ≤ 3.40 | ≤ 3.40 | ≤ 3.40 | ≤ 3.40 | ≤ 3.40 | concentration with statistically significant decrease in viability (p<0.05) ([2]; co-culture, FIG. 6): 200 µM
CCOC(=O)c1ccccc1C(=O)OCC [DEP, Diethylphthalate] | − | no or slight decrease of cell viability | < 3.40 | < 3.40 | < 3.40 | < 3.40 | < 3.40 | < 3.40 | < 3.40 | < 3.40 | developmental toxicity of phthalates (literature) (reproductive system [1]; in vivo): developmental non-toxic
CCCCOC(=O)c1ccccc1C(=O)OCCCC [DBP, Dibutyl phthalate] | + | dose-dependent decrease of cell viability | 3.36 | 3.41 | ≤ 3.40 | ≤ 3.40 | ≤ 3.40 | 3.43 | ≤ 3.40 | ≤ 3.40 | concentration with statistically significant decrease in viability (p<0.05) ([2]; co-culture, FIG. 6): 200 µM
[Cl][Cd][Cl] [Cd, Cadmium chloride] | + | most toxic |  |  |  |  |  |  |  |  | pIC50 (Leydig cells (TM3); [18]): 4.80; pIC50 (Leydig cells (TM3); [15]): 5.07; reproductive LOAEL (reproductive system [5]; in rats): 0.088 mg/kg/day; pIC50 [3, 9]: 5.68; pIC50 [3, 10]: 5.68; pIC50 (Sertoli cells (TM4); [19]): 4.84; pIC50 (Sertoli cells (TM4); [20]): 5.02; F-actin cytoskeletal structure [6]: destruction of cytoskeletal structure; cell proliferation (cell number) [6]: decrease of cell proliferation (cell number); γH2AX foci formation ([6]; dose-dependent): significantly induced phosphorylation of γH2AX foci formation; pIC50 [2, 16]: 4.95; pIC50 [2, 17]: 5.38
